In publication PMC10099666, “Structure Elucidation, Total Synthesis, Antibacterial In Vivo Efficacy and Biosynthesis Proposal of Myxobacterial Corramycin” (Angewandte Chemie (International Ed. in English), 2022):
*1 amine or outer side, *2 acyl side, *3 side chain or, on linkers, in order; H or OH if unused. Where a SMILES comes first, the peptide text is derived from it. [ ]: non-standard residue; d: D form. The star is where a group is joined. Ava(2S,3R-(OH)2,4S-OMe) = CO[C@@H](CN[*:1])[C@H](O)[C@H](O)C(=O)[*:2]; dHis(βS-OH,π-Me) = Cn1cncc1[C@@H](O)[C@@H](N)C(=O)O; Butanoyl(2R-OH,3S-OH) = C[C@H](O)[C@@H](O)C(=O)*; Val(3-OH) = CC(C)(O)[C@H](N)C(=O)O; NMeF = CN[C@@H](Cc1ccccc1)C(=O)O

Columns and labels:
[1] = test system: mice infected with E. coli ATCC35218; assay type: in vivo; conditions: i.v. 20 mg kg^−1 Corramycin in E. coli mouse infection model
Experimental: As bacterial resistance development in minimal media is thought to be more mimetic to an actual infection in vivo, we decided to test the in vivo efficacy of Corramycin in infected mice, despite the poor FoR experiment results in the rich medium. The mice were first infected intraperitoneally with E. coli ATCC35218 and subsequently treated with different doses of Corramycin ranging from a total of 10 to 30 mg per kg body weight divided into two doses, 1 hour and 3 hours after infection.
Figure 4 In vivo antibacterial activity of Corramycin in infected mice. A) Colony forming unit (CFU) load of E. coli ATCC35218 in blood 4 hours post infection with 2.10^7 CFU. 5 mice per dose were used. […]; Tienam: Imipenem/Cilastatin treatment (positive control, dark grey bar); Corramycin treatment with different doses (light blue, blue and dark blue bars). B) Survival rate [in %] of 10 mice per dose 3, 6, 24, 48, 72 and 96 hours post infection.
13.2 Complementation of SbmA and YejEF in the E. coli deletion mutant […]
14.1 Infection of the test animals and treatment with Corramycin in vivo For the in vivo infection and antibiotic treatment experiments a total of 75 male Swiss albino mice, divided into five groups with 15 animals, were used. Before infecting the test animals, the weight of each animal was determined (Suppl. Raw Data 1). […]

[2] = assay type: in vivo; conditions: single i.v. bolus 30 mg kg-1, male Swiss mice, LC/MS-MS, three animals per sampling time
Experimental: However, despite this rapid elimination, the antibacterial effect was strong enough in the animals to achieve survival after a single day of treatment.
Figure S 71. A) Blood bacteremia experiment. E. coli ATCC35218 CFU load after treatment of infected mice with 10 mg kg-1, 20 mg kg-1 or 30 mg kg-1 Corramycin. B) Survival of the E. coli ATCC35218 infected mice in %, after one day of treatment with either 0.9 % NaCl (negative control), Tienam (15 mg kg-1 Imipenem; positive control) or Corramycin in three different doses (10 mg kg-1, 20 mg kg-1 or 30 mg kg-1).
14.2 Corramycin elimination experiment
Native Corramycin systemic exposure was determined following a single intravenous (30 mg kg-1 expressed as active compound) bolus administration to male Swiss mice. […]
Lung, brain, kidney, heart and liver were collected at each sampling time (5 min, 0.5, 1, 2, 4, 6, 8 and 24 h post administration) pooled per sampling time, weighed and frozen at -20 °C until analysis. Native Corramycin was quantified in the plasma and tissues using an exploratory LC/MS-MS assay method in Early Bioanalysis Group of Toulouse (Montpellier DSAR Operational Center), France. […] The pharmacokinetic parameters were calculated from the arithmetic mean of the plasma concentrations or the tissue concentrations (lung, brain, kidney, heart and liver) using the program WinNonLin 5.2, non-compartmental models 200 and 201. […]

## CO[C@@H](CNC(=O)[C@H](NC(=O)[C@H](O)[C@H](C)O)[C@H](O)c1cncn1C)[C@H](O)[C@H](O)C(=O)N(C)[C@@H](Cc1ccccc1)C(=O)NCC(=O)N[C@H](C(=O)N[C@@H](CO)C(=O)N[C@H](C(=O)N[C@@H](CC(C)C)C(=O)N[C@@H](CO)C(=O)O)C(C)(C)O)C(C)(C)O [Corramycin] ({Butanoyl(2R-OH,3S-OH)}-[dHis(βS-OH,π-Me)][Ava(2S,3R-(OH)2,4S-OMe)][NMeF]G[Val(3-OH)]S[Val(3-OH)]LS-OH)
[1]
  Toxic side effects in mice: without toxic side effects
[2]
  Time of plasma concentration above the MIC after i.v. administration: less than 30 minutes
